Laboratory results reported in patent US12036222B2, “Methods of treating cancers overexpressing CARM1 with EZH2 inhibitors and a PARP inhibitor” (The Wistar Institut of Anatomy and Biology, priority 2018, dated 2024).
Entries after “also recorded” stand apart in the source; their conditions may differ.

Columns and labels:
[1] = tested on: tumors formed by CARM1 knockout cells; experiment: Immunohistochemistry and qRT-PCR of dissected CARM1 knockout tumors; type: in vivo, mice
Description: FIGS. 82 to 84 illustrate immunohistochemical analysis for serial sections of tumors dissected from mice injected with CARM1 knockout A1847 cells. Serial sections of tumors dissected from the indicated treatment groups described in FIGS. 73 to 75 were subjected to immunohistochemical staining for H3K27Me3, EZH2, cleaved caspase 3, and Ki67 (FIG. 82). Scale bar=50 μm. Histological score (H-score) of the indicated proteins was calculated for 3 separate fields from 5 tumors from 5 individual mice from each of the indicated groups (FIG. 83). Expression of the indicated EZH2/BAF155 target genes was determined by qRT-PCR in the tumors dissected from the indicated treatment groups (FIG. 84).
The observed tumor growth suppression in vivo was correlated with the molecular pathways underlying the CARM1-dependent effects of EZH2 inhibition. To do so, immunohistochemical (IHC) analysis was performed for markers of cell proliferation (Ki67), apoptosis (cleaved caspase 3), H3K27Me3 and EZH2. […] Finally, the observed decrease in cell proliferation and increase in apoptosis correlated with the upregulation of the identified CARM1-regulated EZH2/BAF155 target genes such as DAB2, DLC1 and NOXA by the EZH2 inhibitor GSK126 in vivo (FIG. 81).

[2] = biological target: T1, EZH2 (Homo sapiens, UniProt Q15910); experiment: Immunoblot of A1847 cells treated with GSK126 (H3K27Me3 as readout of EZH2 activity); type: cell-based; design: inhibition of the enzymatic activity of EZH2 as indicated by the decrease in H3K27Me3 levels: dose or concentration left out as unconfirmed; conditions: 72 hours
T1 construct: endogenous in cells; host or cells: A1847 cells (CARM1-high epithelial ovarian cancer line)
T1 sequence (Q15910 whole entry): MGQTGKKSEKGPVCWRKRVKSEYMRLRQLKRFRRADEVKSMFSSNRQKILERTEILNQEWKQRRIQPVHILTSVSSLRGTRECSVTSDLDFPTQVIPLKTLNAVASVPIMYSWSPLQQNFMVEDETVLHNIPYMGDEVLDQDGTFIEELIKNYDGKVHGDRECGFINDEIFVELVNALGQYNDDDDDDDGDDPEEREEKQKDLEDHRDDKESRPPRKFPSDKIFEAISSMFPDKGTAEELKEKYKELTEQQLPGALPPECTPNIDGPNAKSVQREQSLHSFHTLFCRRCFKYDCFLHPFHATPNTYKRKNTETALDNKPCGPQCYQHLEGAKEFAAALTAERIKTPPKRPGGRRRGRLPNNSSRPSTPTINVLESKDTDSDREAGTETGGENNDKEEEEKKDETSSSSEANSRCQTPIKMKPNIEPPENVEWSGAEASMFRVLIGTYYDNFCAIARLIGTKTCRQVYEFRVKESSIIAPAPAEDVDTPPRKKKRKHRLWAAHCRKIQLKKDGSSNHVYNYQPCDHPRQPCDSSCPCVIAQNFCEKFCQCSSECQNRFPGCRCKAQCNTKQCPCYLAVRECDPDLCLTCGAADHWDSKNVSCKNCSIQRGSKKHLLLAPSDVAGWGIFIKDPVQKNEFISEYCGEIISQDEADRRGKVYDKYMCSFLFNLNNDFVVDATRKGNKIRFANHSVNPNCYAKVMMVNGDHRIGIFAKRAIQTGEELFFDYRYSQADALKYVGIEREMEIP
T1 sequence (Q15022 whole entry partner): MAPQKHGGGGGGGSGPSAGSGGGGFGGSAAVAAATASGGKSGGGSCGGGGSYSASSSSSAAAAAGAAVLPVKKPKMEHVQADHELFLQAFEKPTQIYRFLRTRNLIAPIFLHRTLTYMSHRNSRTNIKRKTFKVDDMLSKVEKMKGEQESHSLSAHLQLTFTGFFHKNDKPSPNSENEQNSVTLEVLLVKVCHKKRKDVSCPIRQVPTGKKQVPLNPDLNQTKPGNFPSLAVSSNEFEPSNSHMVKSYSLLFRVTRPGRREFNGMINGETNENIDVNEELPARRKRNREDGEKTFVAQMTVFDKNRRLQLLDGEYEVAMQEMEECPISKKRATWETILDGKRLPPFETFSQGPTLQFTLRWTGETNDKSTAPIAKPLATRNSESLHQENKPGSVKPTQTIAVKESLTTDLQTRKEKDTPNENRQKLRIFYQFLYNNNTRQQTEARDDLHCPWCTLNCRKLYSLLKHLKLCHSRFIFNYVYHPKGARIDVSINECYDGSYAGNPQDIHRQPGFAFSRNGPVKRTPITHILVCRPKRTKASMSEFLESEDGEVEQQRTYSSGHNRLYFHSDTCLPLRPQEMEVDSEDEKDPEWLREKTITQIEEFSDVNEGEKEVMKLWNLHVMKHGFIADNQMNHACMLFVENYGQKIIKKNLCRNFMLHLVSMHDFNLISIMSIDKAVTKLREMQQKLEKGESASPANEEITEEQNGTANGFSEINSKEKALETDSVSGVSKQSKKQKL
T1 sequence (O75530 whole entry partner): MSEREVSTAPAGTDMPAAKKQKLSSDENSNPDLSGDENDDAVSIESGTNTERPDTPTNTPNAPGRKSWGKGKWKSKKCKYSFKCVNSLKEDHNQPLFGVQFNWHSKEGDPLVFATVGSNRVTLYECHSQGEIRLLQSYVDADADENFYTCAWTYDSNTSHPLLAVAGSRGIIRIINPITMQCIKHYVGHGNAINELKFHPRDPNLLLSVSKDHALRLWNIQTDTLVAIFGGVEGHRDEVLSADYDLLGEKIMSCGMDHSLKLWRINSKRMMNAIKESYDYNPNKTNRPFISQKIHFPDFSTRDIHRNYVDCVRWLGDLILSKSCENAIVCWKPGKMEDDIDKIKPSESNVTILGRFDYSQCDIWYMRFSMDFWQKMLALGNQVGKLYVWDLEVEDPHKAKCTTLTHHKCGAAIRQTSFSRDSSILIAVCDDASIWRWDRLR
Description: FIG. 32 illustrates that the EZH2 inhibitor GSK126 decreases H3K27Me3 levels in a dose-dependent manner. A1847 cells were treated with the indicated concentrations of GSK126 for 72 hours and examined for expression of the indicated proteins by immunoblot. Expression of histone H3 and 3-actin was used as a loading control.

[3] = clinical trials for hematopoietic malignancies; cited from earlier work
[4] = biological target: T2, PRC2 subunits EZH2 and SUZ12 interaction (Homo sapiens, UniProt Q15910); experiment: Immunoprecipitation of EZH2 and immunoblot for SUZ12; type: cell-based; conditions: A1847 cells, 10 μM GSK126, 7 days
T2 construct: endogenous in cells; host or cells: A1847 cells (CARM1-high)
T2 sequence (Q15910 whole entry): as the sequence (Q15910 whole entry) above
T2 sequence (Q15022 whole entry partner): as the sequence (Q15022 whole entry partner) above
T2 sequence (O75530 whole entry partner): as the sequence (O75530 whole entry partner) above
Description: A1847 cells were treated with 10 μM GSK126 or vehicle control for 7 days. The cells were subjected to immunoprecipitation (IP) analysis by using an anti-EZH2 antibody. The immunoprecipitated product was examined for EZH2 and SUZ12 expression by immunoblot. An isotype-matched IgG was used as a control.

[5] = tested on: promoter regions of the human DAB2, DLC1, and NOXA genes; experiment: ChIP-qPCR at promoters of EZH2/BAF155 target genes; type: cell-based; conditions: A1847 cells
Excerpt: FIGS. 58 to 61 illustrate the results of a ChIP analysis using anti-EZH2 (FIG. 58), anti-H3K27Me3 (FIG. 59), anti-BAF155 (FIG. 60), or anti-RNA Pol II (FIG. 61) antibodies. An isotype matched IgG was used as a negative control. ChIP products were subjected to qPCR analysis using primers specific for the promoter regions of the human DAB2, DLC1, and NOXA genes. Data is representative of three independent experiments. * p<0.001 compared with IgG controls and #p<0.001 compared with parental controls.
(§1) ChIP was performed as described in Tu et al. Developmental Cell(2011) 21:1077-91. The following antibodies were used to perform ChIP: anti-H3K27Me3 (Cell Signaling, Cat. No: 9733), anti-BAF155 (Santa Cruz, Cat. No: sc-9746), anti-RNA polymerase II (Santa Cruz, Cat. No: sc-899) or anti-EZH2 (Cell Signaling, Cat. No: 5246). An isotype matched IgG was used as a negative control. ChIP DNA was analyzed by quantitative PCR against the promoter of the indicated genes using the following primers: DAB2 Forward: 5′-[…]-3′ (SEQ ID NO: 10) and DAB2 Reverse: 5′-[…]-3′ (SEQ ID NO: 11); DLC1 Forward: 5′-[…]-3′ (SEQ ID NO: 12) and DLC1 Reverse: 5′-[…]-3′ (SEQ ID NO: 13); NOXA Forward: 5′-[…]-3′ (SEQ ID NO: 14) and NOXA Reverse: 5′-[…]-3′ (SEQ ID NO: 15); TIMP3 Forward: 5′-[…]-3′ (SEQ ID NO: 16) and TIMP3 Reverse: 5′-[…]-3′ (SEQ ID NO: 17).

[6] = tested on: TIMP3 promoter; experiment: ChIP-qPCR at TIMP3 promoter; type: cell-based, human; conditions: A1847 cells, 10 μM GSK126
Description: FIGS. 62 to 65 illustrate the results of a ChIP analysis in parental control and CARM1 knockout A1847 cells treated with 10 μM GSK126 or vehicle controls. The cells were subjected to ChIP analysis using anti-EZH2 (FIG. 62), anti-H3K27Me3 (FIG. 63), anti-BAF155 (FIG. 64), or anti-RNA Pol II (FIG. 65) antibodies. An isotype-matched IgG was used as a negative control. ChIP products were subjected to qPCR analysis using primers specific for the promoter regions of the human TIMP3 genes. Mean of three independent experiments with SEM.* p<0.001 compared with controls.
as §1

[7] = tested on: CARM1-depleted cells; experiment: Colony formation assay with CARM1-depleted cells; type: cell-based; conditions: CARM1-depleted vs normal cells, GSK126 vs DMSO
Description: To confirm the relationship between CARM1 overexpression and sensitivity to EZH2 inhibition, further studies were performed to assess the impact of CARM1 depletion. In FIG. 9, a Western blot of CARM1 and BAF155me2 in CARM1 depleted cells with a control (Actin) is shown. In addition, the results of a colony formation assay (unstained, magnified) with normal and CARM1-depleted cells, in DMSO (control) and treated with GSK126, are shown in FIG. 10. A colony formation assay with normal and CARM1-depleted cells, in DMSO (control) and after treatment with GSK126 is shown in FIG. 11, with the results quantified in FIG. 12. Finally, FIG. 13 illustrates the results of treatment of CARM1 depleted cells with GSK126.
500 to 5,000 cell were plated into a 24 well tissue culture plate and treated with the indicated compounds. Medium was changed every three days with appropriate drug doses for 12 days or until control wells became confluent. Colonies were washed twice with PBS and fixed with 10% methanol and 10% acetic acid in distilled water. Fixed colonies were stained with 0.005% crystal violet. Integrated density was measured using NIH ImageJ software.

SMILES: CC[C@H](C)n1cc(C)c2c(C(=O)NCc3c(C)cc(C)[nH]c3=O)cc(-c3ccc(N4CCNCC4)nc3)cc21 [GSK126, (S)-1-(sec-butyl)-N-((4,6-dimethyl-2-oxo-1,2-dihydropyridin-3-yl)methyl)-3-methyl-6-(6-(piperazin-1-yl)pyridin-3-yl)-1H-indole-4-carboxamide]
- H3K27Me3 ([1]; IHC): reduction of H3K27Me3
- expression of Ki67 ([1]; IHC): did not affect the expression
- expression of cleaved caspase 3 ([1]; IHC): did not affect the expression
- expression of CARM1 regulated EZH2/BAF155 target genes ([1]; qRT-PCR): did not increase the expression
- EZH2 protein levels [2]: did not affect EZH2 protein levels
- expression of CARM1 [2]: did not affect the expression of CARM1
- inhibition of the enzymatic activity of EZH2 as indicated by the decrease in H3K27Me3 levels [2]: > 95%
- H3K27Me3 levels ([2]; indicated concentrations): dose-dependent decrease in H3K27Me3 levels
- safety in clinical trials [3]: used safely; also recorded: proven safe; also recorded: well-tolerated with limited toxicity
- interaction between PRC2 subunits EZH2 and SUZ12 [4]: did not weaken the interaction
- EZH2 association with target genes [5]: without affecting EZH2's association with its target genes
- H3K27Me3 occupancy at target gene loci [5]: decreased H3K27Me3 occupancy
- association of BAF155 and Pol II with the TIMP3 promoter [6]: CARM1 KO but not EZH2 inhibitor GSK126 treatment decreased the association
- sensitivity after CARM1 depletion [7]: abrogating the sensitivity
